Key:
[1] = biological target: T1, Escherichia blattae 1,3-propanediol dehydrogenase (PDD, dhaT), mutant PDD from evolved strain GEB031 (ATCC PTA-92), SEQ ID NO:4 (Shimwellia blattae, UniProt Q3ZL59, H105L); experiment: PDD comparison, 1,3-propanediol dehydrogenase from evolved strain GEB031; format: biochemical, Escherichia blattae GEB031 (ATCC PTA-92); settings: PDD from evolved strain GEB031, compared with wild type E. blattae
T1 construct: no tag
Experimental: (§1) Strains—Wild type ATCC 33429, E. blattae comprising the mutant PDD as described in Example 4 and having ATCC accession number PTA-92.
(§2) Growth—Cells were grown in a complex medium at 30C 500 ml in a 2800 ml fernbach with shaking at 225 rpm for 20 hr. The medium consists of KH2PO4, 5.4 g/L; (NH4)2SO4, 1.2 g/L; MgSO47H2O, 0.4 g/L; yeast extract, 2.0 g/L; tryptone, 2.0 g/L; and glycerol, 9.2 g/L in tap water. The pH was adjusted to 7.1 with KOH before autoclaving (Honda, et al., 1980, J. Bacteriol, 143:1458–1465).
(§3) Extract prep—Cells were harvested by centrifugation with care to avoid anaerobic conditions. Pellets were resuspended in 100 mM Tricine pH 8.2 containing 50 mM KCl and 1 mM DTT. Cells were disrupted by passage through a French pressure cell. Crude extracts were clarified by centrifugation at 20K×g for 20 min followed by 100K×g for 1 hr to yield the high speed supernatant (HSS) fraction.
(§4) Assays—the assay for PDD was performed as described by Johnson, E. A. et al., 1987, J. Bacteriol. 169:2050–2054.
(§5) Partial purification of PDD—HSS was separated on a 16×100 Poros 20HQ column. The buffers were A, 50 mM HEPES, pH 7.4 containing 100 uM MnCl and B, A buffer containing 500 mM KCl. The column was loaded and developed at 10 ml/min. The gradient was 10 CV wash, a linear gradient to 70% B in 10 CV, and 1 CV to 100% B. The activity was detected in the very early fractions of the gradient. […]

[2] = system: wild-type E. blattae; experiment: Viability (plate counts) of wild-type E. blattae during glycerol fermentation with accumulation of 3HPA; format: cell-based, Escherichia blattae ATCC 33429; settings: anaerobic glycerol fermentation, 30° C., 3HPA accumulated to 50 mM
Experimental: FIG. 5—Glycerol fermentation of E. blattae at pH 7.0. Culture conditions are described in the text. Plate counts were by serial dilution and performed in triplicate on Luria agar plates. Substrate and 0products were measured by HPLC.
The wild-type E. blattae and the evolved E. blattae were subjected to fermentation in the following medium: 75 g glycerol, 5 g K2HPO4.3H2O, 3 g KH2PO4, 2 g (NH4)2SO4, 0.4 g MgSO4.7H2O, 0.2 g CaCl2.2H2O, 4 mg CoCl2.2H2O, 2 g yeast extract, and 1 g peptone per liter water. The pH was maintained with 20% NaOH. Both fermentations were run at 30° C. with a N2 sparge and were inoculated with a stationary grown overnight preculture.
The wild-type E. blattae accumulated 3HPA and stopped growing and metabolizing glycerol. The accumulation of 3HPA was high and reached 50 mM. […] After the culture had consumed all of the glycerol more was added and the culture continued converting glycerol to 1,3-propanediol.

[3] = substrate: NC(=O)c1ccc[n+]([C@@H]2O[C@H](COP(=O)([O-])OP(=O)(O)OC[C@H]3O[C@@H](n4cnc5c(N)ncnc54)[C@H](O)[C@@H]3O)[C@@H](O)[C@H]2O)c1; experiment: PDD kinetics, partially purified 1,3-propanediol dehydrogenase from wild type strain 33429; format: biochemical, Escherichia blattae ATCC 33429; settings: other: PDD of wild type strain 33429; cofactor NAD; 30.0 °C
Experimental: as §1, §2, §3, §4, §5

[4] = substrate: OCCCO; experiment: as above; format: biochemical, Escherichia blattae ATCC 33429; settings: other: PDD of wild type strain 33429; substrate 1,3-propanediol; 30.0 °C
Experimental: as §1, §2, §3, §4, §5

T1 sequence (Q3ZL59 entry or part of it H105L): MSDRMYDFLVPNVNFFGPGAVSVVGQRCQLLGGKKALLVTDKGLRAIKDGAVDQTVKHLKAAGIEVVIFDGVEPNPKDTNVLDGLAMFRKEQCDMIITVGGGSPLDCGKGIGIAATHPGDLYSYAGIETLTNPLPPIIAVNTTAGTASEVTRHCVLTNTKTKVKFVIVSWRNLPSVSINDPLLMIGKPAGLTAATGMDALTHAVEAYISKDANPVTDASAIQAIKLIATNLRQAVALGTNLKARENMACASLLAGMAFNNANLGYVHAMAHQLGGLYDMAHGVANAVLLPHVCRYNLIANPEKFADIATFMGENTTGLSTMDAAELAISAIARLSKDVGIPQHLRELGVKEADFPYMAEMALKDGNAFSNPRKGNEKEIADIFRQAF

For `OCCCO` [1,3-propanediol], the “Km for 1,3-propanediol” value [1] was “higher”.

`O=CCCO` [3HPA, 3-hydroxy-propionaldehyde] was tested, and the “toxicity of accumulated 3HPA (plate counts)” value [2] was “toxic”.

B1: Escherichia blattae 1,3-propanediol dehydrogenase (PDD, dhaT), wild type, strain ATCC 33429 (Shimwellia blattae) (protein)
chain: MSDRMYDFLVPNVNFFGPGAVSVVGQRCQLLGGKKALLVTDKGLRAIKDGAVDQTVKHLKAAGIEVVIFDGVEPNPKDTNVLDGLAMFRKEQCDMIITVGGGSPHDCGKGIGIAATHPGDLYSYAGIETLTNPLPPIIAVNTTAGTASEVTRHCVLTNTKTKVKFVIVSWRNLPSVSINDPLLMIGKPAGLTAATGMDALTHAVEAYISKDANPVTDASAIQAIKLIATNLRQAVALGTNLKARENMACASLLAGMAFNNANLGYVHAMAHQLGGLYDMAHGVANAVLLPHVCRYNLIANPEKFADIATFMGENTTGLSTMDAAELAISAIARLSKDVGIPQHLRELGVKEADFPYMAEMALKDGNAFSNPRKGNEKEIADIFRQAF
notes: no tag
B1 was tested, and the Km [3] was 0.057 mM and the Km [4] was 28 mM.

Reference: US7125695B2, “Directed evolution of microorganisms” (Genencor International, Inc., priority 1999, dated 2006)
